# Legend:
# [1] = Aqueous solubility with 0.1% w/w surfactants and polymers; dissolution behavior of forms; type: physicochemical; conditions: aqueous buffered solutions
# Experimental: Excess solid was added to aqueous buffered solutions; samples were withdrawn at predetermined intervals (2, 5, 8, 10, 15, 20, 30, 45, 60 minutes, and 24 hours), filtered through regenerated cellulose filters, and diluted for concentration measurement by the HPLC-UV method.
# [2] = Pharmacokinetics of sofosbuvir and ledipasvir alone or in combination; type: in vivo; conditions: for AUC(0-inf) / AUC(0-t) / Cmax: po, plasma analyte, n = 17, mean (% CV)
# clinical = conditions: in vivo; for AUC(0-inf) / AUC(0-t) / Cmax: po, plasma analyte, Sofosbuvir/Ledipasvir Tablet, n = 29, mean (% CV); for AUC(0-inf): AUCinf; for AUC(0-t): AUClast
# [3] = PK of Sofosbuvir/Ledipasvir tablets fasted or with meals
# [4] = Compatibility/stability of sofosbuvir and ledipasvir:copovidone solid dispersion blend; type: physicochemical; conditions: for Strength / Total Impurity Content: blend pellets, open glass vials
# Experimental: The compatibility of sofosbuvir anhydrous crystalline drug substance was evaluated with the ledipasvir:copovidone solid dispersion. A blend of the sofosbuvir and ledipasvir:copovidone (1:1) solid dispersion was prepared at a ratio representative of the final 400 mg sofosbuvir/90 mg ledipasvir tablets. […]
# [5] = PK of sofosbuvir alone or with Compound E (and ledipasvir); type: in vivo; conditions: for AUC(0-inf) / AUC(0-t) / Cmax: human, in vivo, n = 18, mean (% CV)
# Experimental: Subjects (n=18) received single doses of sofosbuvir (400 mg) alone or in combination with Compound E (500 mg QD) under fed conditions.
# HCV = experiment: Dose selection: antiviral response and Emax PK/PD modeling; type: in vivo, Hepatitis C virus
# Experimental: The sofosbuvir dose selected for the tablet formulation is 400 mg once daily. Support for the 400 mg sofosbuvir dose can be derived from Emax PK/PD modeling with early virological and human exposure data which also supports the selection of a 400 mg sofosbuvir dose over others tested.
# The mean sofosbuvir major metabolite AUCtau for the 400 mg sofosbuvir dose is associated with approximately 77% of the maximal HCV RNA change from baseline achievable as determined by this model, a value which is on the cusp of the plateau of the exposure-response sigmoidal curve. […] Therefore, given that sofosbuvir exposure with 200 mg tablets appears dose-proportional with single doses up to 1200 mg, doses below 400 mg are expected to yield considerable reductions in the magnitude of HCV RNA change from baseline.
# The sofosbuvir dose of 400 mg once daily was associated with higher SVR rates in genotype 1 HCV infected patients as compared to the 200 mg once daily dose when given in conjunction with additional HCV therapeutics for 24 weeks. Safety and tolerability appeared similar across both dose levels. In addition, when sofosbuvir 400 mg once daily plus other HCV therapeutics were given to genotype 2 or 3 HCV infected patients, 100% SVR24 was observed.
# The maximum median HCV RNA log 10 reduction was 3 or greater for all cohorts dosed with ≥3 mg of ledipasvir. […] Therefore, 30 mg and 90 mg of ledipasvir were selected as the dose for the formulations described herein.
# Therefore, the 90 mg dose of ledipasvir may confer a greater antiviral coverage that prevents viral breakthrough.
# [6] = pH-solubility profile and solubility in simulated intestinal media; type: physicochemical; conditions: aqueous, neutral form (pH>5), room temperature
# Experimental: Excess solid ledipasvir was added to a range of pH-adjusted aqueous solutions (titrated with HCl or NaOH) and stirred for 48 hours at room temperature. The suspensions were then filtered through regenerated cellulose syringe filters. The pH value of the supernatant was measured, and the supernatant was diluted as appropriate with 50:50 H2O+0.1% TFA:ACN and assayed for ledipasvir content by the HPLC-UV method.
# Solubility of ledipasvir amorphous free base was assessed in three types of simulated intestinal fluids at pH 6.5 or pH 5.0; and simulated intestinal bile salt and lecithin mixture (SIBLM), pH 6.4. Excess solid ledipasvir was added to the respective SIFs and stirred for 48 hours at room temperature. The resulting suspensions were then filtered through regenerated cellulose syringe filters. The supernatant was diluted as appropriate with 50:50 H2O+0.1% TFA:ACN and assayed for ledipasvir content by the HPLC-UV method.
# [7] = Sofosbuvir + Ledipasvir vs single agent alone
# [8] = in vivo, Sofosbuvir + Ledipasvir
# [9] = SOF + Compound E + ledipasvir vs SOF alone
# [10] = po, 400 mg, SOF + Compound E (500 mg QD), fed
# [11] = po, 400 mg, SOF alone (400 mg single dose, fed)
# [12] = listed as Ledipasvir crystalline free base Form III
structure (smiles),measurement,setting,value
COC(=O)N[C@H](C(=O)N1CC2(CC2)C[C@H]1c1ncc(-c2ccc3c(c2)C(F)(F)c2cc(-c4ccc5nc([C@@H]6[C@H]7CC[C@H](C7)N6C(=O)[C@@H](NC(=O)OC)C(C)C)[nH]c5c4)ccc2-3)[nH]1)C(C)C [Ledipasvir-02],dissolution behavior relative to other ledipasvir forms,[1],improved relative to all free base forms
"CC(C)OC(=O)[C@H](C)N[P@](=O)(OC[C@H]1O[C@@H](n2ccc(=O)[nH]c2=O)[C@](C)(F)[C@@H]1O)Oc1ccccc1 [Sofosbuvir, (S)-isopropyl 2-(((S)-(((2R,3R,4R,5R)-5-(2,4-dioxo-3,4-dihydropyrimidin-1(2H)-yl)-4-fluoro-3-hydroxy-4-methyltetrahydrofuran-2-yl)methoxy)(phenoxy)phosphoryl)amino)propanoate]",AUC with ledipasvir as share of total drug related material (DRM) AUC,[2]; DRM = sum of AUCs of analytes corrected for molecular weight,~5.7%
same,% GMR (90% CI) of AUCinf,[2]; [7],"229 (191, 276) %"
same,% GMR (90% CI) of AUClast,[2]; [7],"230 (191, 277) %"
same,% GMR (90% CI) of Cmax,[2]; [7],"221 (176, 278) %"
same,increase of plasma exposure by ledipasvir,[2]; in vivo,~2.3 fold
same,AUC(0-inf),[2]; [8],1750 ng·h/mL
same,AUC(0-t),[2]; [8],1740 ng·h/mL
same,Cmax,[2]; [8],1870 ng/mL
same,AUC(0-inf),"[2]; in vivo, Sofosbuvir alone",794 ng·h/mL
same,AUC(0-t),"[2]; in vivo, Sofosbuvir alone",788 ng·h/mL
same,Cmax,"[2]; in vivo, Sofosbuvir alone",929 ng/mL
same,Tmax,clinical,1 h
same,AUC(0-inf),clinical; Fasted,1520 ng·h/mL
same,AUC(0-inf),clinical; High-Calorie/High-Fat Meal,2570 ng·h/mL
same,AUC(0-inf),clinical; Moderate-Fat Meal,2860 ng·h/mL
same,AUC(0-t),clinical; Fasted,1520 ng·h/mL
same,AUC(0-t),clinical; High-Calorie/High-Fat Meal,2550 ng·h/mL
same,AUC(0-t),clinical; Moderate-Fat Meal,2850 ng·h/mL
same,Cmax,clinical; Fasted,1240 ng/mL
same,Cmax,clinical; High-Calorie/High-Fat Meal,1350 ng/mL
same,Cmax,clinical; Moderate-Fat Meal,1520 ng/mL
same,% GMR (90% CI) [Moderate-Fat/Fasted] of AUCinf,[3]; Sofosbuvir/Ledipasvir Tablet,"195 (176, 216) %"
same,% GMR (90% CI) [Moderate-Fat/Fasted] of AUClast,[3]; Sofosbuvir/Ledipasvir Tablet,"195 (176, 216) %"
same,% GMR (90% CI) [Moderate-Fat/Fasted] of Cmax,[3]; Sofosbuvir/Ledipasvir Tablet,"126 (109, 147) %"
same,GMR (90% CI) [High-Fat/Fasted] of AUCinf,[3]; Sofosbuvir/Ledipasvir Tablet,"179 (162, 198) %"
same,GMR (90% CI) [High-Fat/Fasted] of AUClast,[3]; Sofosbuvir/Ledipasvir Tablet,"178 (161, 198) %"
same,GMR (90% CI) [High-Fat/Fasted] of Cmax,[3]; Sofosbuvir/Ledipasvir Tablet,"115 (99.0, 134) %"
same,median Tmax,"[3]; sofosbuvir/ledipasvir composition, with food",2.00 h
same,degradation in blend with the other active,"[4]; 40° C./75% RH and 60° C./ambient humidity, two and four weeks",no degradation was observed
same,Strength,"[4]; 45° C./75% RH, 0 weeks",102.9%
same,Total Impurity Content,"[4]; 45° C./75% RH, 0 weeks",0.4%
same,Strength,"[4]; 45° C./75% RH, 2 weeks",101.6%
same,Total Impurity Content,"[4]; 45° C./75% RH, 2 weeks",0.3%
same,Strength,"[4]; 45° C./75% RH, 4 weeks",100.5%
same,Total Impurity Content,"[4]; 45° C./75% RH, 4 weeks",0.2%
same,Strength,"[4]; 60° C., 0 weeks",102.9%
same,Total Impurity Content,"[4]; 60° C., 0 weeks",0.4%
same,Strength,"[4]; 60° C., 1 week",102.4%
same,Total Impurity Content,"[4]; 60° C., 1 week",0.3%
same,Strength,"[4]; 60° C., 2 weeks",103.2%
same,Total Impurity Content,"[4]; 60° C., 2 weeks",0.3%
same,Strength,"[4]; 60° C., 4 weeks",102.8%
same,Total Impurity Content,"[4]; 60° C., 4 weeks",0.2%
same,% GMR of AUCinf,[5]; [9],297%
same,% GMR of AUClast,[5]; [9],301%
same,% GMR of Cmax,[5]; [9],283%
same,% GMR of AUCinf,[5]; SOF + Compound E vs SOF alone,135%
same,% GMR of AUClast,[5]; SOF + Compound E vs SOF alone,135%
same,% GMR of Cmax,[5]; SOF + Compound E vs SOF alone,130%
same,AUC(0-inf),[5]; SOF + Compound E + ledipasvir,2560 ng·h/mL
same,AUC(0-t),[5]; SOF + Compound E + ledipasvir,2550 ng·h/mL
same,Cmax,[5]; SOF + Compound E + ledipasvir,1260 ng/mL
same,AUC(0-inf),[5]; [10],1150 ng·h/mL
same,AUC(0-t),[5]; [10],1140 ng·h/mL
same,Cmax,[5]; [10],587 ng/mL
same,AUC(0-inf),[5]; [11],921 ng·h/mL
same,AUC(0-t),[5]; [11],908 ng·h/mL
same,Cmax,[5]; [11],515 ng/mL
same,share of the maximal HCV RNA change from baseline achievable (Emax PK/PD model),"HCV; 400 mg dose, mean major metabolite AUCtau",approximately 77%
same,SVR24,"HCV; 400 mg once daily plus other HCV therapeutics, genotype 2 or 3 HCV infected patients",100%
COC(=O)N[C@H](C(=O)N1CC2(CC2)C[C@H]1c1ncc(-c2ccc3c(c2)C(F)(F)c2cc(-c4ccc5nc([C@@H]6[C@H]7CC[C@H](C7)N6C(=O)[C@@H](NC(=O)OC)C(C)C)[nH]c5c4)ccc2-3)[nH]1)C(C)C [Ledipasvir Form III],intrinsic solubility (S0),[6]; [12],< 0.1 µg/mL
same,dissolution behavior relative to other ledipasvir forms,[1]; [12],"dissolves more slowly than the amorphous free base, but faster than ledipasvir-03"
COC(=O)N[C@H](C(=O)N1CC2(CC2)C[C@H]1c1ncc(-c2ccc3c(c2)C(F)(F)c2cc(-c4ccc5nc([C@@H]6[C@H]7CC[C@H](C7)N6C(=O)[C@@H](NC(=O)OC)C(C)C)[nH]c5c4)ccc2-3)[nH]1)C(C)C [Ledipasvir-03],intrinsic solubility (S0),[6],< 0.1 µg/mL
same,dissolution behavior relative to other ledipasvir forms,[1],slowest dissolution of all forms tested

# Source: patent US10039779B2, “Combination formulation of two antiviral compounds” (priority 2013, dated 2018)
